{
  "source": "patent US10087478B2",
  "about": "“Compositions comprising a polypeptide having cellulolytic enhancing activity and a nitrogen-containing compound and uses thereof” (priority 2010, dated 2018)",
  "key": {"[1]": {"tested_on": "Trichoderma reesei cellulase composition", "test": "Nitrogen-containing compound effect(no GH61) on hydrolysis of AVICEL by T. reesei cellulase composition", "type": "biochemical", "conditions": "for reduction in hydrolysis: no GH61", "protocol": "The concentration of 1,2-benzenediamine compounds was 5 mM and the concentration of 2-aminophenol was 1 mM.\nThe concentration of nitrogen-containing compounds was 5 mM.\n(§1) The concentration of the GH61 polypeptide was either 0.4 or 2 mg per g cellulose."}, "[2]": {"biological_target": "Trichoderma reesei GH61B polypeptide (Trichoderma reesei, UniProt Q7Z9M7)", "sequence (Q7Z9M7 20-249)": "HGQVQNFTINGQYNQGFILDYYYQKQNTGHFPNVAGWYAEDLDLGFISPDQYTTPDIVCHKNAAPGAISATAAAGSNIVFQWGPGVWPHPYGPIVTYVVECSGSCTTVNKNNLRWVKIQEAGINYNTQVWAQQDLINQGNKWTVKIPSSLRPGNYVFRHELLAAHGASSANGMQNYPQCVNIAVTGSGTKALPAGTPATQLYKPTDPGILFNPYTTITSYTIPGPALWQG", "test": "Effect of TEMPO on T. reesei GH61B during AVICEL hydrolysis by T. reesei cellulase composition", "type": "biochemical", "conditions": "GH61 0.4 or 2 mg per g cellulose, day 7", "protocol": "as §1"}, "[3]": {"tested_on": "Penicillium pinophilum GH61A polypeptide", "test": "Effect of TEMPO on P. pinophilum GH61A during AVICEL hydrolysis by T. reesei cellulase composition", "type": "biochemical", "conditions": "GH61 0.4 or 2 mg per g cellulose, day 7", "protocol": "as §1"}, "[4]": {"biological_target": "Aspergillus fumigatus GH61B polypeptide (Aspergillus fumigatus, UniProt Q4WP32)", "test": "Effect of TEMPO on A. fumigatus GH61B during AVICEL hydrolysis by T. reesei cellulase composition", "type": "biochemical", "conditions": "GH61 0.4 or 2 mg per g cellulose, day 7", "protocol": "as §1"}, "[5]": {"tested_on": "Talaromyces stipitatus GH61 polypeptide", "test": "Effect of TEMPO on T. stipitatus GH61 during AVICEL hydrolysis by T. reesei cellulase composition", "type": "biochemical", "conditions": "GH61 0.4 or 2 mg per g cellulose, day 7", "protocol": "as §1"}, "[6]": {"tested_on": "Thielavia terrestris GH61E polypeptide", "test": "Effect of TEMPO on T. terrestris GH61E during AVICEL hydrolysis by T. reesei cellulase composition", "type": "biochemical", "protocol": "as §1"}, "[7]": {"tested_on": "T. reesei cellulase composition", "test": "AVICEL cellulolysis by T. reesei cellulase composition with combinations of compounds and various GH61 polypeptides", "type": "biochemical, Trichoderma reesei"}, "[8]": {"tested_on": "Trichoderma reesei cellulase composition", "test": "Hydrolysis of AVICEL by T. reesei cellulase composition with and without GH61 polypeptide, no nitrogen-containing compound", "type": "biochemical", "excerpt": "Microcrystalline cellulose was used as the source of the cellulosic material."}, "[9]": {"conditions": "pterin dissolved in DMSO, cellulose 29.5 mg per ml, 7 days"}, "[10]": {"conditions": "Example 6, 5 mM compound, 14 mg/ml AVICEL, 1, 3, 5, 7 or 8 days (FIG. 2 white bars)"}},
  "data": [
    {"molecule": "Nc1ccccc1N", "note": "[1,2-benzenediamine]", "values": [
      {"measurement": "nitrogen-containing compound effect(no GH61)", "setting": "[1]; 5 mM compound, 14 mg/ml AVICEL, 1, 5 and 8 days (FIG. 1A)", "result": "less than 1"}
    ]},
    {"molecule": "Nc1ccccc1O", "note": "[2-aminophenol]", "values": [
      {"measurement": "nitrogen-containing compound effect(no GH61)", "setting": "[1]; 1 mM 2-aminophenol, cellulose 29.5 mg per ml, 3 days", "result": "0.951±0.0198"},
      {"measurement": "nitrogen-containing compound effect(no GH61)", "setting": "[1]; 1 mM 2-aminophenol, cellulose 29.5 mg per ml, 7 days", "result": "0.902±0.0301"},
      {"measurement": "reduction in hydrolysis", "setting": "[1]; 1 mM 2-aminophenol, 3 days", "result": "approximately 5%"},
      {"measurement": "reduction in hydrolysis", "setting": "[1]; 1 mM 2-aminophenol, 7 days", "result": "approximately 10%"}
    ]},
    {"molecule": "CC1Nc2nc(N)[nH]c(=O)c2NC1C.Cl", "note": "(stereo not shown) [6,7-dimethyl-5,6,7,8-tetrahydropterine hydrochloride]", "values": [
      {"measurement": "nitrogen-containing compound effect(no GH61)", "setting": "[1]; pterin dissolved in DMSO, cellulose 29.5 mg per ml, 1 day (so in the source)", "result": "0.715±0.00557"},
      {"measurement": "nitrogen-containing compound effect(no GH61)", "setting": "[1]; [9]", "result": "0.684±0.0203"}
    ]},
    {"molecule": "C[C@H](O)[C@H](O)[C@H]1CNc2nc(N)[nH]c(=O)c2N1.Cl.Cl", "note": "[(6R)-5,6,7,8-tetrahydrobiopterin dihydrochloride]", "values": [
      {"measurement": "nitrogen-containing compound effect(no GH61)", "setting": "[1]; pterin dissolved in DMSO, cellulose 29.5 mg per ml, 3 days", "result": "0.924±0.0191"},
      {"measurement": "nitrogen-containing compound effect(no GH61)", "setting": "[1]; [9]", "result": "0.901±0.0332"}
    ]},
    {"molecule": "CC1(C)CCCC(C)(C)N1[O]", "note": "[TEMPO, 2,2,6,6-tetramethyl-1-piperidinyloxy]", "values": [
      {"measurement": "nitrogen-containing compound effect(no GH61)", "setting": "[1]; [10]", "result": "less than 1"},
      {"measurement": "nitrogen-containing compound effect(no GH61)", "setting": "[1]; Example 7, TEMPO, late stage of hydrolysis, day 7 (FIGS. 3A, 3B)", "result": "less than 1"},
      {"measurement": "GH61 effect", "setting": "[2]", "result": "greater than 1"},
      {"measurement": "nitrogen-containing compound effect(+GH61)", "setting": "[2]", "result": "less than 1"},
      {"measurement": "GH61 effect", "setting": "[3]", "result": "greater than 1"},
      {"measurement": "nitrogen-containing compound effect(+GH61)", "setting": "[3]", "result": "less than 1"},
      {"measurement": "GH61 effect", "setting": "[4]", "result": "greater than 1"},
      {"measurement": "nitrogen-containing compound effect(+GH61)", "setting": "[4]; late stage", "result": "less than 1"},
      {"measurement": "GH61 effect", "setting": "[5]", "result": "greater than 1"},
      {"measurement": "nitrogen-containing compound effect(+GH61)", "setting": "[5]", "result": "less than 1"},
      {"measurement": "nitrogen-containing compound effect(+GH61)", "setting": "[6]; GH61 0.4 or 2 mg per g cellulose, 1, 3 and 7 days", "result": "~1"},
      {"measurement": "GH61 effect", "setting": "[6]; GH61 0.4 or 2 mg per g cellulose, day 1", "result": "greater than 1"}
    ]},
    {"molecule": "CC(C)=NO", "note": "[acetone oxime]", "values": [
      {"measurement": "nitrogen-containing compound effect(no GH61)", "setting": "[1]; [10]", "result": "less than 1"}
    ]},
    {"molecule": "ON=Cc1ccccn1", "note": "[pyridine-2-aldoxime]", "values": [
      {"measurement": "nitrogen-containing compound effect(no GH61)", "setting": "[1]; [10]", "result": "slightly decreased"}
    ]},
    {"molecule": "O=C1NC(=O)C(=NO)C(=O)N1", "note": "[violuric acid]", "values": [
      {"measurement": "nitrogen-containing compound effect(no GH61)", "setting": "[1]; [10]", "result": "very slightly impacted"}
    ]},
    {"molecule": "T. aurantiacus GH61A polypeptide: GH61A polypeptide having cellulolytic enhancing activity, SEQ ID NO: 14, recombinantly prepared in Aspergillus oryzae JaL250 (protein, listed as Thermoascus aurantiacus) MSFSKIIATAGVLASASLVAGHGFVQNIVIDGKYYGGYLVNQYPYMSNPPEVIAWSTTATDLGFVDGTGYQTPDIICHRGAKPGALTAPVSPGGTVELQWTPWPDSHHGPVINYLAPCNGDCSTVDKTQLEFFKIAESGLINDDNPPGIWASDNLIAANNSWTVTIPTTIAPGNYVLRHEIIALHSAQNQDGAQNYPQCINLQVTGGGSDNPAGTLGTALYHDTDPGILINIYQKLSSYIIPGPPLYTG", "values": [
      {"measurement": "overall conversion of AVICEL, comparison of GH61 polypeptides", "setting": "[7]; most mixtures of compounds at 1 mM", "result": "greatest overall conversion"},
      {"measurement": "Percent conversion of AVICEL", "setting": "[8]; 14 mg/ml AVICEL, cellulase 4 mg/g cellulose, GH61 0.4 mg/g where present, pH 5.0, 50° C., 1 day", "result": "16±1", "unit": "%"},
      {"measurement": "Percent conversion of AVICEL", "setting": "[8]; same conditions, 3 days", "result": "30±4", "unit": "%"},
      {"measurement": "Percent conversion of AVICEL", "setting": "[8]; same conditions, 5 days", "result": "42.7±0.9", "unit": "%"},
      {"measurement": "Percent conversion of AVICEL", "setting": "[8]; same conditions, 7 days", "result": "45±4", "unit": "%"},
      {"measurement": "Percent conversion of AVICEL", "setting": "[8]; same conditions, 8 days", "result": "52.9±0.8", "unit": "%"}
    ]},
    {"molecule": "A. fumigatus GH61B polypeptide: GH61 polypeptide having cellulolytic enhancing activity, SEQ ID NO: 30, recombinantly prepared in Aspergillus oryzae JaL355 (protein, listed as Aspergillus fumigatus) MTLSKITSIAGLLASASLVAGHGFVSGIVADGKYYGGYLVNQYPYMSNPPDTIAWSTTATDLGFVDGTGYQSPDIICHRDAKNGKLTATVAAGSQIEFQWTTWPESHHGPLITYLAPCNGDCATVDKTTLKFVKIAAQGLIDGSNPPGVWADDEMIANNNTATVTIPASYAPGNYVLRHEIIALHSAGNLNGAQNYPQCFNIQITGGGSAQGSGTAGTSLYKNTDPGIKFDIYSDLSGGYPIPGPALFNA", "values": [
      {"measurement": "overall conversion of AVICEL, comparison of GH61 polypeptides", "setting": "[7]; mixtures of compounds at 3 mM", "result": "highest overall conversion"}
    ]}
  ]
}
